Holding throughout (type): cell-based
For one assay, the system named is E. coli strains. Description: CLSI overnight reference method, broth microdilution MIC. As to conditions: for MIC (CLSI Ref): unit assumed.
Another assay has as its system P. aeruginosa. The experiment in a line: Rapid AST by surface binding of europium probe, time resolved fluorescence. As to conditions: Pseudomonas aeruginosa. How it is done:
The x-axis of each graph denotes the concentrations of antimicrobial Amikacin (AMK) in micrograms/milliliter, and the y-axis denotes fluorescence from binding to bacteria surface. Growth check data measured by optical density (Absorbance at 600 nm) of the bacterial culture is denoted for each strain.
AST was performed by surface binding of probe followed by time resolved fluorescence. The P. aeruginosa strains were incubated at 35° C. in shaking conditions for 4 hours for attaining growth, and growth check was performed by measuring absorbance of the culture at 600 nm after 4 hours of growth.

In the next assay the test system is Bacteria. Description: Bacterial growth with or without resazurin during incubation, BacTiter-Glo luminescence. As to conditions: 4 hours at 35° C., versus resazurin added after incubation. How it is done: FIG. 1 illustrates growth luminescence ratios post-incubation of microogranisms, where resazurin was introduced to one group of microorganisms before the initial incubation period and the other group was introduced to resazurin after the initial incubation period.
Bacteria were inoculated into 96-well microplates comprise cation-adjusted Mueller Hinton broth in the presence and absence of resazurin (alamarBlue®) and incubated at 35° C. for 4 hours. For wells that were not incubated with resazurin, the growth indicator was added immediately after the 4-hour incubation. BacTiter-Glo reagent (Promega, Madison, WI) was added to all wells and luminescence was measured. […] Thus, it can be advantageous to remove growth indicator from test wells during incubation.

[1] abbreviates: E. coli strain Clinical Sample 1.
[2] abbreviates: E. coli strain Clinical Sample 2.
The mark [3] stands for this setting: E. coli strain Clinical Sample 4.
Where [4] appears, read: E. coli strain Clinical Sample 5.
[5] abbreviates: E. coli strain Clinical Sample 6.
Where [6] appears, read: E. coli strain Clinical Sample 7.
[7] abbreviates: E. coli strain Clinical Sample 8.
The mark [8] stands for this setting: E. coli strain Clinical Sample 9.
Setting [9] is: E. coli strain Clinical Sample 10.
[10] abbreviates: E. coli strain Clinical Sample 11.
Where [11] appears, read: E. coli strain Clinical Sample 12.
[12] abbreviates: E. coli strain Clinical Sample 13.

In brackets after ≈: the same amount, converted by molar mass. Like-named read-outs stand apart in the source and are kept apart here.

Turning to `NCC[C@H](O)C(=O)N[C@@H]1C[C@H](N)[C@@H](O[C@H]2O[C@H](CN)[C@@H](O)[C@H](O)[C@H]2O)[C@H](O)[C@H]1O[C@H]1O[C@H](CO)[C@@H](O)[C@H](N)[C@H]1O` [AMK, Amikacin], the MIC (CLSI Ref) in the assay on E. coli strains (E. coli strain BEI 4.097), against E. coli strains (E. coli strain CDC Carba36), in the assay with E. coli strains (setting [1]), in the assay with E. coli strains (setting [2]), with E. coli strains (setting [3]) and with E. coli strains (setting [4]) was 4 µg/mL (≈ 6.83 µM) throughout. Also, the MIC (CLSI Ref) in the assay on E. coli strains (setting [5]) was found to be 4 µg/mL (≈ 6.83 µM); with E. coli strains (setting [6]), 2 µg/mL (≈ 3.42 µM); with E. coli strains (setting [7]) it was 4 µg/mL (≈ 6.83 µM); in the assay on E. coli strains (setting [8]), 4 µg/mL (≈ 6.83 µM); with E. coli strains (setting [9]), 8 µg/mL (≈ 13.7 µM); against E. coli strains (setting [10]), 4 µg/mL (≈ 6.83 µM). The MIC (CLSI Ref) with E. coli strains (setting [11]) and in the assay on E. coli strains (setting [12]) was 4 µg/mL (≈ 6.83 µM) in each case. In addition, the MIC (commonly the lowest concentration that inhibits growth of the organism) stood at 8 µg/mL (≈ 13.7 µM) in the assay on P. aeruginosa (P. aeruginosa Strain 1, growth check value 2.18, 4 hours at 35° C., read-out: MIC) and 8 µg/mL (≈ 13.7 µM) in the assay on P. aeruginosa (P. aeruginosa Strain 2, no reliable MIC at growth checkpoint value 1.13, read-out: expected MIC).
For `O=c1ccc2[n+]([O-])c3ccc(O)cc3oc-2c1` [resazurin, 7-hydroxy-10-oxidophenoxazin-10-ium-3-one], the “Effect of resazurin present during incubation on viable bacteria (BacTiter-Glo luminescence)” value in the assay with Bacteria was “less luminescent signal was observed”.
In the case of Piperacillin/tazobactam [TZP], the MIC (CLSI Ref) in the assay with E. coli strains (E. coli strain BEI 4.097) was determined as 4 µg/mL; with E. coli strains (E. coli strain CDC Carba36), 128 µg/mL; in the assay on E. coli strains (setting [1]), 4 µg/mL; against E. coli strains (setting [2]), 8 µg/mL; against E. coli strains (setting [3]), 4 µg/mL; against E. coli strains (setting [4]) it was 4 µg/mL. Also, the MIC (CLSI Ref) against E. coli strains (setting [5]) was 2 µg/mL; in the assay on E. coli strains (setting [6]) it was 4 µg/mL; against E. coli strains (setting [7]), 32 µg/mL; in the assay on E. coli strains (setting [8]) it was above 128 µg/mL; in the assay with E. coli strains (setting [9]), 2 µg/mL; against E. coli strains (setting [10]) it was 2 µg/mL. In addition, the MIC (CLSI Ref) against E. coli strains (setting [11]) came to 2 µg/mL; in the assay on E. coli strains (setting [12]), 32 µg/mL.
With Trimethoprim-Sulfamethoxazole [SXT], the MIC (CLSI Ref) is below 0.5 µg/mL in the assay with E. coli strains (E. coli strain BEI 4.097); below 0.5 µg/mL against E. coli strains (E. coli strain CDC Carba36); below 0.5 µg/mL in the assay with E. coli strains (setting [1]); 4 µg/mL in the assay with E. coli strains (setting [2]); above 32 µg/mL in the assay on E. coli strains (setting [3]); above 32 µg/mL against E. coli strains (setting [4]). Further, the MIC (CLSI Ref) in the assay with E. coli strains (setting [5]) is 2 µg/mL; with E. coli strains (setting [6]) it was above 32 µg/mL; with E. coli strains (setting [7]), below 0.5 µg/mL; against E. coli strains (setting [8]), above 32 µg/mL; with E. coli strains (setting [9]) it was above 32 µg/mL; in the assay with E. coli strains (setting [10]), below 0.5 µg/mL. For the same compound, the MIC (CLSI Ref) in the assay with E. coli strains (setting [11]) and with E. coli strains (setting [12]) was below 0.5 µg/mL throughout. Moreover, the “Interpretation letter” value in the assay on E. coli strains (setting [2]) is recorded as “R”.

These data come from US12203124B2, “Methods for improved rapid antimicrobial susceptibility testing” (priority 2016, dated 2025).
